Reference: ChEMBL document CHEMBL5120855, “Potent 2,3-dihydrophthalazine-1,4-dione derivatives as dual inhibitors for mono-ADP-ribosyltransferases PARP10 and PARP15” (Eur J Med Chem, 2022)

Target: T1, Protein mono-ADP-ribosyltransferase PARP15 (Homo sapiens, UniProt Q460N3)
T1 sequence (Q460N3 whole entry): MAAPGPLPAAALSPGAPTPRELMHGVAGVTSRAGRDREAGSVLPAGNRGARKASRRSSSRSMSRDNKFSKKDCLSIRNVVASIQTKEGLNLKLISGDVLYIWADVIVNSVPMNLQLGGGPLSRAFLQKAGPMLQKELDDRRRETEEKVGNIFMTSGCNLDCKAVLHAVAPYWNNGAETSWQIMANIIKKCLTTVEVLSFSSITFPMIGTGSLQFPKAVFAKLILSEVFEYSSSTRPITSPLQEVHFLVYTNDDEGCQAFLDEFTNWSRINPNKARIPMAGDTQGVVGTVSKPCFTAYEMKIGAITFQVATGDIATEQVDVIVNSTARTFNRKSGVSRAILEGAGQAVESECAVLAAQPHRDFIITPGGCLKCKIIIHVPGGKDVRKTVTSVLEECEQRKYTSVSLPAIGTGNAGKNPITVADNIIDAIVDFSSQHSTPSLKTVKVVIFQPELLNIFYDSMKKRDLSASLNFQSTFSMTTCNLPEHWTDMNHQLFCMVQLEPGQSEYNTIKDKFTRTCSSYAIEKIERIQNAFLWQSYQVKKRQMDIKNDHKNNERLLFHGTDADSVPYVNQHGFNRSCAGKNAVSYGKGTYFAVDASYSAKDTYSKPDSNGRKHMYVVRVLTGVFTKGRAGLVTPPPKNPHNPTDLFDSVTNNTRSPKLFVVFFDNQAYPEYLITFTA
Experiment: Inhibition of human N-terminal 6His-tagged PARP15 (460 to 656 residues) expressed in Escherichia coli Rosetta2 (DE3) cells using NAD+ as substrate incubated for 10 mins by fluorescence based analysis

IC50: 2400 nM
SMILES: NC(=O)c1ccc(OCC2CCC2)cc1
